Experimental data from patent US7230033B2, “Pest control compositions and methods for their use” (United States of America as represented by the Secretary of …, priority 2000, dated 2007).

Tests used:
[1] = system: nymphal Ixodes scapularis; test: Treated-vial biocidal screening with 2% acetone solutions (Example 2), tick nymphs; type: in vivo; conditions: treated vials sat 72 h; arthropods added for the final 24 h
Description: (§1) Samples of the compounds listed below were obtained as described in Example 1, and screened for biocidal activities against nymphal Ixodes scapularis. In this example, 2% acetone solutions (wt/vol) of the compounds were applied to inner surfaces of 2-dram friction cap vials. Vials and caps were treated then allowed to dry for a minimum of 4 hours before placing 10 nymphs in each container. These same vials were used to challenge additional nymphs and adult I. scapularis ticks and adult Xenopsylla cheopis fleas through five weeks to observe any possible residual activity.
(§2) Numbers in parentheses refer to length of treatment in terms of hours (h) or weeks (wk). Data is presented in terms of number killed/number tested. For test periods longer than 24 hours, the treated vials were allowed to sit for the stated period after drying (72 h, 4 wk, or 5 wk) and each group of arthropods was added to the vials for the final 24 h of the test period.

[2] = system: adult I. scapularis ticks; test: Treated-vial biocidal screening with 2% acetone solutions (Example 2), adult ticks, residual; type: in vivo, Ixodes scapularis; conditions: treated vials sat 4 wk; arthropods added for the final 24 h
Description: as §1, §2

[3] = system: adult Xenopsylla cheopis fleas; test: Treated-vial biocidal screening with 2% acetone solutions (Example 2), adult fleas, residual; type: in vivo; conditions: treated vials sat 5 wk; arthropods added for the final 24 h
Description: as §1, §2

[4] = system: I. scapularis nymphs; test: Tick bioassay, treated 2-dram vials, probit analysis; type: in vivo, Ixodes scapularis; conditions: for Slope: 24 h exposure, probit
Source text: A control treated with acetone only was run with each series.
For each time point, if ticks and fleas were incapable of movement, maintaining normal posture, leg coordination, ability to right themselves, or any signs of life, they were considered moribund or dead.

[5] = system: X. cheopis adults; test: Flea bioassay, treated 2-dram vials, probit analysis; type: in vivo, Xenopsylla cheopis; conditions: 24 h exposure; probit
Description: Med. […] A control treated with acetone only was run with each series. Tick and flea susceptibility was evaluated using a modification of the disposable pipette method of Barnard et al. (J. Econ. Entomol., 74:466-69, 1981) and Maupin and […]. Med. […] The inner surface of 2-dram friction cap vials were treated with the compound/acetone solution, or acetone only as a control, and left to air-dry overnight (see also, […] et al., J. Med. […] Three to 4 holes were made in the plastic cap to allow for air exchange. Nymphal ticks and adult fleas were then placed directly into the vials using forceps. […] For each time point, if ticks and fleas were incapable of movement, maintaining normal posture, leg coordination, ability to right themselves, or any signs of life, they were considered moribund or dead.

[6] = system: Ae. aegypti adults; test: Adult mosquito bottle bioassay; type: in vivo, Aedes aegypti; conditions: for Slope: probit
Description: (§3) Adult mosquitoes were tested using the bottle bioassay method of Brogden and McAllister (J. Am. Mosq. Control Assoc., 14:159–64, 1998) with minor modifications. Natural product extracts were two-fold serially diluted for a total of 8 concentrations ranging from 0.002% to 0.25% in 1.5 ml of acetone. Individual dilutions were added to 250 ml Wheaton glass bottles and capped. Bottles were manipulated to evenly coat all inner surfaces. The caps were removed and bottles were allowed to air-dry overnight. Once bottles were completely dry, 10–50 (in some tests 25–50) adult mosquitoes were aspirated into the bottles. Mosquitoes were held in the bottles for 24 h at 23° C. and 85% RH. Morbidity and mortality were recorded at 15, 30, 45, and 60 min and 24 hour intervals. One bottle for each replicate was treated with acetone only and served as a control. The dose-mortality data was evaluated with probit analysis, using the LdP Line software, to determine LC50 and LC90 values.
Carvacrol was combined with compound 7, 9, or 10 at a 1:1 ratio (7.5 μl of carvacrol:7.5 μl of compound 7, 9, or 10 was added to 2,985 μl of acetone for a 0.5% solution, from which serial dilutions were made), and tested as previously described against nymphal ticks and adult and larval mosquitoes.

[7] = system: Ixodes scapularis nymphs; test: Residual activity, aged treated vials, ticks; type: in vivo; conditions: for LC90, residual activity: NE = not effective
Description: (§4) Briefly, groups of 10 nymphal I. scapularis and X. cheopis fleas were used in all tests (more than a total of 5,240 nymphs and 4,860 fleas were exposed to the compounds). The inner surface of 2-dram friction cap vials were treated with the compound/acetone solution, or acetone only as a control, and left to air-dry overnight (see also, Panella et al., J. Med. Entomol., 42(3):352-358, 2005. Three to 4 holes were made in the plastic cap to allow for air exchange. Nymphal ticks and adult fleas were then placed directly into the vials using forceps. Vials containing ticks or fleas were placed in desiccators for 24 h at 21° C. and 90% RH. Morbidity and mortality was recorded at 1, 2, 4, 8, and 24 h after initial exposure.

[8] = system: Xenopsylla cheopis adults; test: Residual activity, aged treated vials, fleas; type: in vivo
Description: as §4

[9] = system: Aedes aegypti adults; test: Residual activity, aged treated bottles, mosquitoes; type: in vivo
Description: as §3

[10] = system: fourth-instar Aedes aegypti larvae; test: Larval mosquito bioassay; type: in vivo; conditions: Aedes aegypti larval mosquitoes, concentration of the 1 ml added to 150 ml water
Description: Individual groups of 10 fourth-instar Aedes aegypti larvae were contained in 150 ml of water and exposed to […] of essential oils prepared by 2-fold serial dilutions ranging from 0.06%–5.0% in 1 ml of acetone. A control group of larvae were exposed to 1 ml of acetone only.
It is important to note that larval mosquitoes are tested in their natural environment, i.e., in water. The particular assays used herein involved groups of 10 larval mosquitoes in 150 ml of water. The weight percentages reported for lethal concentration for larval mosquitoes are the weight percentages added to the 150 ml water (as opposed to the final percentage of the tested compound(s) in the 150 ml water). As one of skill in the art will appreciate, test compound(s) added to a volume of water (such as, 150 ml) can be dramatically diluted depending upon the water solubility of the tested compound. […] If the tested compound is an oil (such as, carvacrol, nootkatone, or 13-hydroxy-valencene), it most likely floats on the surface of the water.

[11] = system: Ixodes scapularis nymphal ticks; test: Tick repellency bioassay; type: in vivo
Source text: One-hundred (100) μl of test compound was pipetted onto a cotton-tipped applicator mounted to the bottom center of a 1 dram glass shell vial using non-toxic modeling clay. A total of 8 concentrations were screened with doses ranging from 0.04–5.0%. Applicators treated with acetone only served as controls. A line was drawn around the perimeter of the vial immediate to the base of the treated cotton portion of the applicator. The area above the line was designated the “repellent zone”. The vial was allowed to air-dry 1 h before a single tick was introduced. Vials were covered with a single piece of mesh and fitted with a hollowed-out plastic cap to cover the opening of the vial; this prevented the tick from escaping but allowed for air exchange. Vials were breathed upon by investigators at 1 min intervals and a hand was placed over the test vials to provide stimuli for ticks to pass into the repellent zone. […] If the tick crossed over and remained in the “repellent zone” for ≧5 sec, the tick was deemed non-repelled by the test compound. Each test was replicated 10 times using a new tick for each test. Repellent activity was determined at 1, 2, 3, and 4 h after treatment. Probit analysis was used to determine repellent efficacy (RD50 and RD95).

[12] = system: ticks, fleas, and mosquitoes; test: Residual activity, general statements (Examples 9, 17); type: in vivo; conditions: ticks
[13] = 24 h exposure, NE = not effective at concentrations tested
[14] = Ixodes scapularis nymphal ticks, alone, or 1:1 with carvacrol (in parenthesis)
[15] = Aedes aegypti adult mosquitoes, alone, or 1:1 with carvacrol (in parenthesis)
[16] = 1 h after compound applied to applicator
[17] = 4 h after compound applied to applicator

## C=C(C)[C@@H]1CCC2=CCC[C@@H](C)[C@]2(C)C1 [Compound 5, Valencene]
[1]
  I. scapularis nymphs (72 h), number killed/number tested: 0/5
[2]
  I. scapularis adults (4 wk), number killed/number tested: 0/5
[3]
  X. cheopis adults (5 wk), number killed/number tested: 0/5
[4]
  Slope: 0.684
[5]
  Slope: 6.925
[6]; [13]
  LC50: 0.015 percent concentration, wt:vol
  LC90: 0.037 percent concentration, wt:vol
[6]; 24 h exposure
  Slope: 3.199

## C=C(CO)C1CCC2=CCC[C@@H](C)[C@]2(C)C1 (stereo partly drawn) [Compound 10, 13-hydroxy-valencene]
[4]
  Slope: 2.562
[4]; [14]
  LC50 (1 h): 0.017 % (wt:vol)
  LC50 (24 h): 0.0054 % (wt:vol)
  LC90 (1 hr): 0.065 % (wt:vol)
  LC90 (24 h): 0.014 % (wt:vol)
[5]
  Slope: 3.143
[6]; 24 h exposure
  Slope: 2.094
[6]; [15]
  LC50 (15 min): 0.077 % (wt:vol)
  LC50 (24 h): 0.0034 % (wt:vol)
  LC90 (15 min): 0.373 % (wt:vol)
  LC90 (24 h): 0.014 % (wt:vol)
[7]; 1 week after treatment
  Slope, residual activity: 3.005
  LC90, residual activity: 0.019 percent concentration, wt:vol
[7]; 2 weeks after treatment
  Slope, residual activity: 1.781
  LC90, residual activity: 0.044 percent concentration, wt:vol
[7]; 4 weeks after treatment
  Slope, residual activity: 1.285
[8]; 1 week after treatment
  Slope, residual activity: 2.218
[8]; 2 weeks after treatment
  Slope, residual activity: 2.442
[9]; 1 week after treatment
  LC90, residual activity: 0.058 percent concentration, wt:vol
  Slope, residual activity: 3.286
[9]; 2 weeks after treatment
  Slope, residual activity: 6.932
[9]; 2 weeks after treatment, NE = not effective
  LC90, residual activity: 0.021 percent concentration, wt:vol
[9]; 4 weeks after treatment
  Slope, residual activity: 2.645
[9]; 4 weeks after treatment, NE = not effective
  LC90, residual activity: 0.04 percent concentration, wt:vol
[10]
  LC50 (1 h): 5.132 % (wt:vol)
  LC50 (24 h): 0.975 % (wt:vol)
  LC90 (1 hr): 13.425 % (wt:vol)
  LC90 (24 h): 1.23 % (wt:vol)
[10]; listed as 13-hydroxy-valencene
  LC50 (24 h): 1.23 % (wt:vol)
[11]; 1 h
  Slope (±SEM): 1.332 (±0.313)
[11]; [16]
  RD50: 0.095 % (wt:vol)
  RD95: 1.637 % (wt:vol)
[11]; 4 h
  Slope (±SEM): 1.066 (±0.307)
[11]; [17]
  RD50: 0.114 % (wt:vol)
  RD95: 3.993 % (wt:vol)
[12]
  residual activity: considerable biological activity through the four week time period

## CC(C)=CCc1ccc(O)c(=O)cc1C(C)C [Compound 11, Nootkatin]
[1]
  I. scapularis nymphs (72 h), number killed/number tested: 0/5
[2]
  I. scapularis adults (4 wk), number killed/number tested: 0/5
[3]
  X. cheopis adults (5 wk), number killed/number tested: 0/5
[6]; 24 h exposure
  Slope: 1.327
